Assay results reported in patent publication US5684020A, “Piperazine, piperidine and 1,2,5,6-tetrahydropyridine” (Adir et Compagnie, priority 1995, dated 1997).

Legend:
[1] = test system: aggressiveness in isolated mice; assay: Test of aggressiveness in isolated mice; type: in vivo, male CD mice; conditions: Mus musculus, sc; 30 minutes before test; read-out: ID50 (dose reducing by half number or duration of attacks)
Source text: 2. Test of aggressiveness in isolated mice
This test allows the evaluation of the intraspecies anti-aggressive activity of a product in mice that have been kept in isolation for several months.
Animals: The test uses male CD mice (Charles River) weighing from 22 to 25 g when they arrive at the animal house. On their arrival, the animals are isolated in individual cages made of opaque black polycarbonate (23×14×13 cm) with a grill lid, and are housed for a prolonged period (approximately 6 months) in the experimentation room.
Selection of pairs of mice: The selection of aggressive pairs of mice that will be used chronically in the study commences after the animals have been isolated for one month. […]
Test: The test takes place once a week. […] The latent period (in seconds) of the first attack and the number and total duration (in seconds) of the attacks are recorded. […]
Statistical analysis: The effects of a product on aggressiveness are evaluated by comparing the number and the duration of the attacks by the pairs of mice that have received the product (treated groups) with those obtained with the pairs that have received the solvent (control group) by using a variance analysis (ANOVA) followed by a Dunnett's test, with the probability p<0.05. […]

[2] = Induction of catalepsy in the rat; conditions: in vivo, sc, 1 hour after injection, 50% of maximum 30 seconds
Source text: 3. Induction of catalepsy in the rat
The acute administration of "typical" antipsychotics to an animal induces catalepsy, that is to say the maintenance of the animal in an often abnormal posture which has been imposed upon it by the experimenter (Waldmeier, 1979). The evaluation of the cataleptogenic properties of a product in the rat thus makes it possible to know whether that product, administered to man, will or will not risk causing an extrapyramidal-type syndrome.
Test: The animals are placed in individual cages and food is withdrawn the day before the test but water taken as desired. The catalepsy test comprises placing each rear paw of the animal on the front paw of the same side and measuring the time (seconds) that the animal remains in that "crossed paws" position (maximum 30 seconds). Each animal is subjected to 3 successive tests (one every two minutes), the animal being removed from its cage and placed on the work surface. Those tests are carded out 1 hour after the subcutaneous injection or oral administration of the product or its solvent. The average value of 3 tests represents the duration of the catalepsy (seconds) for each animal. There are 5 or 6 rats per experimental group.
Statistical analysis: The effect of the product on the duration of the catalepsy is evaluated by an ANOVA, followed by a Dunnett's test, with the probability p<0.05. […]

[3] = test system: Verticalisation induced by apomorphine; assay: Verticalisation induced by apomorphine in the mouse; type: in vivo; conditions: sc, 0.5 h, s.c., apomorphine 0.75 mg/kg s.c. 30 minutes later, read-out: ID50 (dose reducing by half the average verticalisation score)
Experimental: 1. Verticalisation induced by apomorphine (0.75 mg/kg, s.c.) in the mouse
This test, described by Protais et al (Psychopharmacologie, 1976, 50, 1-6) allows the evaluation of the dopaminergic antagonist activity of possible antipsychotic products. A mouse to which apomorphine has been administered and which has been placed in a cage comprising vertical bars, remains most of the time immobile at the top of the cage clinging by its 4 paws to the bars. That verticalisation behaviour is blocked if a dopaminergic antagonist product has been administered before the apomorphine.
Test: After the subcutaneous (s.c.) administration of the product or solvent (control group), the mouse is placed in a cylindrical barred cage (14 cm diam.×14 cm h) having vertical bars. Thirty minutes later, the animal receives the apomorphine dose (0.75 mg/kg, s.c.). […]
Statistical analysis: The effect of the product on verticalisation is evaluated by comparing the scores obtained for each group that has been administered a dose of product with those obtained for the control group (solvent) using a Mann and Whitney U test, with a probability p<0.05. […]

schizophrenia patients = conditions: Davis et al., 1983; cited from earlier work
dopamine turnover = assay: Dopamine turnover (DOPAC/dopamine ratio) in rat brain structures; type: in vivo, Male Wistar rats; conditions: regions studied: frontal cortex, nucleus accumbens, olfactory tubercles, striatum
Experimental: by dopamine synthesis (turnover) studies in the following structures: frontal cortex (mesocortical pathway), nucleus accumbens and olfactory tubercle (mesolimbic pathway), striatum (nigrostriatal pathway). The functional dopaminergic antagonists cause an increase in the synthesis of dopamine in those structures.
Male Wistar rats (Iffa Credo, Illskirchen France) weighing 250 to 280 g are kept in a 12h/12h light/darkness cycle (light switched on at 7.30 a.m.). They have free access to water and food; the laboratory temperature is 21°±1° C. and the humidity is 60±5%.
Dopamine turnover: The effect of the products of the invention and the reference product on dopamine turnover is determined after subcutaneous injection. After a period of 30 minutes, the rats are decapitated and the brain is dissected in order to extract the striatum, the nucleus accumbens, the frontal cortex and the olfactory tubercles. The tissues are homogenised in 500 μl of HClO4 0.1M containing 0.5% Na2 S2 O5 and 0.5% EDTA Na2 and centrifuged at 15,000 g for 15 minutes at 4° C. The supernatants are diluted in the mobile phase and injected into an HPLC column (Hypersil ODS 5 μm, C18, 150×4.6mm, Thermo Separation Products, Les Ulis, France) thermostatically controlled at 25° C. […]

Row | SMILES | ED50 [1] [mg/kg] | ED50 at 1 h [2] [mg/kg] | ED50 [3] [mg/kg] | extrapyramidal symptoms (in words) (schizophrenia patients) | effect on dopaminergic transmission (in words) (dopamine turnover)
1 | c1ccc2c(c1)CC(CN1CCN(c3ccc4c(c3)OCCO4)CC1)C2 [Example 6, 4-(2,3-Dihydrobenzo-1,4-dioxin-6-yl)-1-(indan-2-ylmethyl)piperazine] | 0.99 | > 80 | 3.88 | – | –
2 | O=C(CCCN1CCC(O)(c2ccc(Cl)cc2)CC1)c1ccc(F)cc1 [Haloperidol] | – | 0.146 | – | often brings about the appearance of undesirable extrapyramidal symptoms (EPS) of the Parkinson's type | significant effect on dopaminergic transmission in each of the regions studied
3 | CN(C)CCCN1c2ccccc2Sc2ccc(Cl)cc21 [chlorpromazine] | – | – | – | often brings about the appearance of undesirable extrapyramidal symptoms (EPS) of the Parkinson's type | –
4 | CN1CCN(C2=Nc3cc(Cl)ccc3Nc3ccccc32)CC1 [clozapine] | – | – | – | cause few extrapyramidal symptoms | –
